Laboratory results published in patent US20130071414A1, “ENGINEERED CD19-SPECIFIC T LYMPHOCYTES THAT COEXPRESS IL-15 AND AN INDUCIBLE CASPASE-9 BASED SUICIDE GENE FOR THE TREATMENT OF B-CELL MALIGNANCIES” (priority 2011, published 2013).

Tests used:
[1] = system: inducible caspase-9 suicide gene in iC9/CAR.19/IL-15^+ T cells; conditions: previous observation (ref 27); cited from earlier work
[2] = system: iC9/CAR.19/IL-15^+ T cells expressing eGFP-FFLuc; assay: In vivo validation of the suicide gene, Raji-engrafted mice with labeled iC9/CAR.19/IL-15^+ T cells; set-up: species or system SCID mice; conditions: Raji i.v., after CID i.p.
Procedure: In vivo validation of the suicide gene. To evaluate the functionality of the suicide gene, mice bearing tumor cells and receiving iC9/CAR.19/IL-15^+ T cells labeled with the eGFP-FFluc gene were treated with CID ([…]) i.p. 2 to 3 doses every other day.^27 CID treatment was initiated when the T-cell bioluminescent signal was exponentially increasing, indicating active expansion of the transgenic cells. Mice were then imaged as described above.
Mice were engrafted i.v. with Raji tumor cells and then infused with eGFP-FFLuc labeled iC9/CAR.19/IL-15^+ T cells. These cells localized and expanded at the tumor site by day 14 after infusion as assessed by bioluminescence measurement (FIG. 6b).

SMILES: CC[C@H](C(=O)N1CCCC[C@H]1C(=O)O[C@H](CCc1ccc(OC)c(OC)c1)c1cccc(OCC(=O)NCC(CNC(=O)COc2cccc([C@@H](CCc3ccc(OC)c(OC)c3)OC(=O)[C@@H]3CCCCN3C(=O)[C@@H](CC)c3cc(OC)c(OC)c(OC)c3)c2)CN(C)C)c1)c1cc(OC)c(OC)c(OC)c1 [CID, AP20187]
- Fraction of cells that escape apoptosis/necrosis shortly after exposure to the dimerizer drug [1]: < 10%
- T-cell bioluminescence after administration of the CID [2]: 1.3×10^5±3×10^4 p/s/cm^2/sr
